Tests used:
[1] = system: beta catenin, p53, DNA damage response; assay: Stabilization of beta catenin and p53 and DNA damage response by CKI inhibitors
[2] = system: β-catenin, p53, c-Myc; assay: Western blot of bone marrow from inhibitor-treated CML carrying mice; type: in vivo, mouse; conditions: daily i.p. 60 mg/Kg; FIG. 6B
Protocol: (§1) The PF670462 was dissolved in 20% 2-hydroxypropyl β-cyclodextrin (vehicle) and administered by daily I.P. of 60 mg/Kg starting 7 hour after disease transfer. The control mice were treated with the vehicle only.
Whole cell lysate were extracted in the presence of protease and phosphatase inhibitors from the bone marrow of CML carrying mice treated with either vehicle or PF670462.
Protein extracts, separated by […] and transferred onto nitrocellulose membranes, were probed with antibodies against beta-catenin, c-Myc, p53 and HSP90. Proteins of interest were detected with HRP-conjugated Donkey/Rabbit anti-mouse IgG antibody (1:5000. GE Healthcare, Uppsala, Sweden) and visualized with the Pierce ECL Western blotting substrate (Thermo Scientific, Rockford, Ill.), according to the provided protocol.

[3] = system: WT BM cells; assay: 7AAD-/Annexin+ apoptosis assay, WT BM cells; type: cell-based, mouse; conditions: FIG. 5D
Protocol: (§2) Freshly isolated bone marrow from CML carrying mice was mixed with normal mice bone marrow in a 1:1 ratio and grown in RPMI supplemented with 15% FCS L-Glutamine, Pen/Strep, Hepes, Sodium Pyruvate, non-essential amino acids (Beit Haemek). PF670462 inhibitor was dissolved in DMSO and added to the tissue culture medium at the indicated concentrations and 0.1% DMSO. As for control, the cells were treated with vehicle only. After 36-48 h, cells were harvested and counted manually using a camera and standard inverted light microscope. Dead cells were excluded using Trypan Blue (sigma). The number of normal and BCR-ABL expressing cells was later extrapolated according to FACS analysis of % GFP^+/7AAD^− expressing cells. AnnexinV-PE (MBL), 7AAD (Tonbo) staining was evaluated by FACS according to manufacturer's recommendation.

[4] = system: leukemic cells; assay: 7AAD-/Annexin+ apoptosis assay, leukemic cells; type: cell-based, mouse; conditions: FIG. 5D
Protocol: as §2

[5] = system: BCR-ABL expressing (GFP+) leukemic cells; assay: In vitro inhibitor test, leukemic cell number in 1:1 mixed CML/normal bone marrow culture; type: cell-based; conditions: increasing concentration of inhibitor
Protocol: as §2

[6] = system: normal BM cells; assay: In vitro inhibitor test, normal cell number in 1:1 mixed CML/normal bone marrow culture; type: cell-based, mouse; conditions: increasing concentration of inhibitor
Protocol: as §2

[7] = system: Wnt and p53 pathway; assay: Quantitative RT-PCR of p53 and Wnt targets in inhibitor-treated bone marrow cells; type: cell-based, mouse; conditions: bone marrow cells treated in vitro; FIG. 5B
Protocol: as §2
Total RNA from cells was extracted using DirectZol RNA miniprep (Zymed). cDNA was generated using a poly(dT) oligonucleotides (IDT) and MMLV—Reverse Transcriptase (Invitrogen) and amplified on a 7900HT Real Time PCR System (Applied Biosystems) using Platinum® SYBR® Green (Invitrogen) according to the manufacturer's instructions. At least triplicate reactions were performed for each gene. Melting curve analysis was performed after each run to control for the nonspecific PCR products and primer dimers. […]

[8] = system: leukemia initiating cells (LIC); assay: BCR-ABL CML blast crisis mouse model, in vivo treatment
Protocol: To generate the BCR-ABL-inducible CML model, BM cells from MxCre^− Ck1α1^fl/fl or MxCre^+ Ck1 α1^fl/fl were extracted and enriched for cKit expressing cells (EasySep #18757) and incubated overnight in RPMI supplemented with 15% FCS L-Glutamine, Pen/Strep (Beit Haemek) and stem cell factor (SCF), IL-3, IL-6 and TPO (Peprotech). The culture was then infected with p210BCR-ABL-IRES-GFP retrovirus construct containing supernatant medium for 4 hours and returned to medium for additional 24 h. The culture was then injected I.V. into sub-lethally irradiated (500 rad) mice. Upon detectable steady increase of GFP expressing cells in the mice peripheral blood (by FACS) and rise in leukocyte numbers and immature cells (detected by Wright-Giemsa stained blood films) the mice were sacrificed and their bone marrow was transferred to sub-lethally irradiated WT hosts.
Each such transfer was termed disease generation. By the fourth transfer, the hosts were no longer sub-lethally irradiated prior to disease transfer and the time between generations was shorter (usually 10 days). Blast crisis development was easily detectable by the highly abnormal number of blast cells (more than 30% of WBC in PB) and the shortening time between transfers. The experimental procedure is illustrated in FIG. 3. Experiments were performed on late generation diseases in which blasts were easily detectable, no irradiation of hosts was necessary and the generation time was short (up to 14 days). Mice were monitored daily for cachexia, lethargy, and ruff coats, paralysis and moribund mice were sacrificed.
as §1

[9] = bone marrow of inhibitor-treated mice transplanted to lethally irradiated mice, one month after transplantation

NCCNS(=O)(=O)c1ccc(Cl)c2ccncc12 [CKI7]
induction of a DNA damage response [1]: nor do they induce a DNA damage response | stabilization of beta catenin and p53 [1]: none of these agents stabilize beta catenin and p53

NC(=O)c1ccc(-c2nc(-c3ccc4c(c3)OCCO4)c(-c3ccccn3)[nH]2)cc1 [D4476]
induction of a DNA damage response [1]: nor do they induce a DNA damage response | stabilization of beta catenin and p53 [1]: none of these agents stabilize beta catenin and p53

COc1cc(OC)c(C=C2C(O)=Nc3ccccc32)c(OC)c1 [IC261]
induction of a DNA damage response [1]: nor do they induce a DNA damage response | stabilization of beta catenin and p53 [1]: none of these agents stabilize beta catenin and p53

Nc1nccc(-c2c(-c3ccc(F)cc3)ncn2C2CCCCC2)n1 [PF670462]
β-catenin, p53 and c-Myc protein in bone marrow (Western blot) [2]: stabilization of β-catenin and p53 and induction of the Wnt target gene c-Myc | apoptotic cell rate (7AAD-/Annexin+) [3]: not significantly effected | apoptotic cell rate (7AAD-/Annexin+) [4]: increase in apoptotic cell rate under the inhibitor treatment in a dosage dependent manner | decline in leukemic cell number [5]: much more prominent | normal BM cell number [6]: only slightly reduced | expression of Wnt and p53 targets (RT-PCR) [7]: upregulation of Wnt and p53 in a dose dependent manner | bone marrow reconstitution of secondary recipients (LT-HSC integrity) [8, 9]: fully reconstitute | leukemia GFP+ cells in peripheral blood of secondary recipients [8, 9]: no evidence of leukemia GFP+ cells | GFP+ leukemic cells in peripheral blood ([8]; daily i.p. 60 mg/Kg starting 7 hour after disease transfer, FIG. 6C): almost undetectable | bone marrow / vertebrate histology ([8]; daily i.p. 60 mg/Kg, FIG. 6D): normal bone marrow appearance with intact vertebrates | blasts in peripheral blood ([8]; daily i.p. 60 mg/Kg, FIG. 6E): no blast were detected | survival of leukemic mice ([8]; daily i.p. 60 mg/Kg, vehicle group died within 12 days, FIG. 6F): remained alive
